Test results from ChEMBL document CHEMBL3272108, “Analogues of sparteine. 5. Antiarrhythmic activity of selected N,N'-disubstituted bispidines” (J Med Chem, 1977).
The source made the active and inactive calls. The rule behind the calls is not given here.

How the values were obtained:
[1] = Binding affinity to magnesium nitrate in anhydrous dimethyl-d6-sulfoxide solvent by proton magnetic resonance analysis
[2] = Octanol-phosphate buffer apparent partition coefficient, log D of the compound at pH 7.4 by GLC analysis; format: physicochemical
Mus musculus = assay: Antiarrhythmic activity in ip dosed CF1 mouse by chloroform-fibrillation assay based ECG analysis; format: functional; settings: CF1, Heart
[3] = Binding affinity to calcium nitrate in anhydrous dimethyl-d6-sulfoxide solvent by proton magnetic resonance analysis
[4] = Acute toxicity in ip dosed CF1 mouse; settings: in vivo
[5] = Therapeutic index, ratio of LD50 for CF1 mouse to ED50 for antiarrhythmic activity in CF1 mouse; settings: in vivo
[6] = Binding affinity to magnesium salt in methanol-d4 solvent by proton magnetic resonance analysis
[7] = Binding affinity to calcium salt in methanol-d4 solvent by proton magnetic resonance analysis

## CCCCN1CC2CC(C1)CN(Cc1ccccc1)C2.Cl
[1]
  Activity: inactive
[2]
  logD: -1.22
Mus musculus
  ED50: 159 µmol/kg
[3]
  Activity: inactive
[4]
  LD50: 198 µmol/kg
[5]
  selectivity ratio: 1.25

## CCCCN1CC2CC(C1)CN(CCCC)C2.Cl
[2]
  logD: -2.07
Mus musculus
  ED50: 170 µmol/kg
[4]
  LD50: 196 µmol/kg
[5]
  selectivity ratio: 1.23

## CC(C)C1C2CC(CN(C)C2)CN1C.Cl (stereo not given)
[2]
  logD: -3.4
Mus musculus
  ED50: 191 µmol/kg
[4]
  LD50: 279 µmol/kg
[5]
  selectivity ratio: 1.46

## C1CCN2C[C@@H]3C[C@@H](CN4CCCC[C@@H]34)[C@H]2C1.O.O.O.O.O.O=S(=O)(O)O [SPARTEINE SULFATE]
[1]
  Activity: inactive
[2]
  logD: -1.57
Mus musculus
  ED50: 150 µmol/kg
[6]
  Activity: Active
[3]
  Activity: inactive
[4]
  LD50: 134 µmol/kg
[7]
  Activity: Active
[5]
  selectivity ratio: 0.89

## CN1CC2CC(C1)CN(Cc1ccccc1)C2.CS(=O)(=O)O
[2]
  logD: -2.57
Mus musculus
  ED50: 154 µmol/kg
[6]
  Activity: Active
[4]
  LD50: 189 µmol/kg
[7]
  Activity: Active
[5]
  selectivity ratio: 1.23

## Br.CCCCN1CC2CC(CN(C)C2)C1
[2]
  logD: -3.39
Mus musculus
  ED50: 192 µmol/kg
[4]
  LD50: 207 µmol/kg
[5]
  selectivity ratio: 1.08

## CC(C)N(CCC(C(N)=O)(c1ccccc1)c1ccccn1)C(C)C (stereo not given) [DISOPYRAMIDE]
Mus musculus
  ED50: 60 µmol/kg
[4]
  LD50: 504 µmol/kg
[5]
  selectivity ratio: 8.4

## Cl.c1ccc(CN2CC3CC(C2)CN(Cc2ccccc2)C3)cc1
[1]
  Activity: inactive
[2]
  logD: -0.43
Mus musculus
  ED50: 160 µmol/kg
[3]
  Activity: inactive
[4]
  LD50: 199 µmol/kg
[5]
  selectivity ratio: 1.24

## CN1CC2CC(C1)CN(C(c1ccccc1)c1ccccc1)C2.Cl
[2]
  logD: -0.43
Mus musculus
  ED50: 259 µmol/kg
[4]
  LD50: 225 µmol/kg
[5]
  selectivity ratio: 0.87
